{"source": "patent US11464749B2", "about": "“Bismuth-thiol compositions and methods of use” (Microbion Corporation, priority 2018, dated 2022)", "key": {"Acinetobacter baumannii": {"system": "Acinetobacter baumannii", "assay": "Broth microdilution MIC (Example 11)", "conditions": "Acinetobacter baumannii"}, "[1]": {"system": "Staphylococcus aureus (MRSA)", "assay": "Broth microdilution MIC (Example 11)"}, "E. faecalis": {"system": "E. faecalis", "assay": "Broth microdilution MIC (Example 11)", "conditions": "Enterococcus faecalis, VRE, VRE Lev^R Cip^R Ery^R"}, "P. aeruginosa": {"system": "P. aeruginosa", "assay": "FIC checkerboard assay", "type": "cell-based", "conditions": "for MIC: Pseudomonas aeruginosa"}, "S. pyogenes": {"system": "S. pyogenes", "assay": "Broth microdilution MIC (Example 11)", "conditions": "Streptococcus pyogenes"}, "Escherichia coli": {"system": "Escherichia coli", "assay": "Broth microdilution MIC (Example 11)"}, "S. pneumoniae": {"system": "S. pneumoniae", "assay": "Broth microdilution MIC (Example 11)", "conditions": "Streptococcus pneumoniae"}, "Klebsiella pneumoniae": {"system": "Klebsiella pneumoniae", "assay": "Broth microdilution MIC (Example 11)"}, "B. cepacia": {"system": "B. cepacia", "assay": "FIC checkerboard assay", "type": "cell-based", "conditions": "Burkholderia cepacia, Meropenem alone (checkerboard with BisEDT), read-out: Drug B MIC"}, "S. agalactiae": {"system": "S. agalactiae", "assay": "Broth microdilution MIC (Example 11)", "conditions": "Streptococcus agalactiae"}, "Enterobacter cloacae": {"system": "Enterobacter cloacae", "assay": "Broth microdilution MIC (Example 11)", "conditions": "ATCCBAA2468"}}, "note": "Read-outs that look alike come from different tables or passages of the source."}
{"smiles": "C[C@@H](O)[C@H]1C(=O)N2C(C(=O)O)=C(S[C@@H]3CN[C@H](C(=O)N(C)C)C3)[C@H](C)[C@H]12", "note": "[Meropenem, reference compound]", "values": [{"measurement": "MIC", "setting": "Acinetobacter baumannii; A. baumannii MMX 2592, MDR, Lev^R, Cip^R, MEM^R, CAZ^R, Gm^R", "value": 64, "unit": "µg/mL"}, {"measurement": "MIC", "setting": "Acinetobacter baumannii; A. baumannii MMX 2593, MDR, Lev^R, Cip^R, MEM^R, CAZ^R, Gm^R", "value": 64, "unit": "µg/mL"}, {"measurement": "MIC", "setting": "Acinetobacter baumannii; A. baumannii MMX 3372, MDR, Cip^R, MEM^I, CAZ^I", "value": 4, "unit": "µg/mL"}, {"measurement": "MIC", "setting": "Acinetobacter baumannii; A. baumannii MMX 3373, Sensitive", "value": 0.5, "unit": "µg/mL"}, {"measurement": "MIC", "setting": "Acinetobacter baumannii; NCTC13304, A. baumannii MMX 4651 (NCTC 13304), MDR, OXA-27, Lev^R, Cip^R, MEM^R, CAZ^R, Gm^I", "value": 64, "unit": "µg/mL"}, {"measurement": "MIC", "setting": "[1]; ATCC29213|MRSA|MSSA, S. aureus MMX 101 (ATCC 29213), QC, MSSA", "value": 0.06, "unit": "µg/mL"}, {"measurement": "MIC", "setting": "[1]; MRSA, S. aureus MMX 5373, MRSA Lev^R Cip^R CC^R Ery^R Ox^R", "value": 32, "unit": "µg/mL"}, {"measurement": "MIC", "setting": "[1]; MRSA, S. aureus MMX 6311, MRSA Lev^R Cip^R CC^R Ery^R Ox^R", "value": 8, "unit": "µg/mL"}, {"measurement": "MIC", "setting": "[1]; MRSA, S. aureus MMX 9203, MRSA Lev^R Cip^R Ery^R Ox^R", "value": 4, "unit": "µg/mL"}, {"measurement": "MIC", "setting": "[1]; MRSA, S. aureus MMX 9204, MRSA Lev^R Cip^R Ery^R Ox^R", "value": 4, "unit": "µg/mL"}, {"measurement": "MIC", "setting": "[1]; MRSA, S. aureus MMX 9205, MRSA Lev^R Cip^R CC^R Ery^R Ox^R", "value": 64, "unit": "µg/mL"}, {"measurement": "MIC", "setting": "E. faecalis; E. faecalis MMX 8960", "value": 8, "unit": "µg/mL"}, {"measurement": "MIC", "setting": "E. faecalis; E. faecalis MMX 8961", "value": 8, "unit": "µg/mL"}, {"measurement": "MIC", "setting": "E. faecalis; E. faecalis MMX 8962", "value": 2, "unit": "µg/mL"}, {"measurement": "MICB (Drug B in combination)", "setting": "P. aeruginosa; P. aeruginosa 6322, with BisEDT, checkerboard rows C-G", "value": 16, "unit": "µg/mL"}, {"measurement": "MIC", "setting": "P. aeruginosa; P. aeruginosa 6322, checkerboard panel BisEDT/Meropenem, read-out: Drug B MIC (alone)", "value": 16, "unit": "µg/mL"}, {"measurement": "MIC", "setting": "P. aeruginosa; P. aeruginosa 6977, Meropenem alone (checkerboard with BisEDT), read-out: Drug B MIC", "value": 8, "unit": "µg/mL"}, {"measurement": "MIC", "setting": "P. aeruginosa; P. aeruginosa 7745, Meropenem alone (checkerboard with BisEDT), read-out: Drug B MIC", "value": 16, "unit": "µg/mL"}, {"measurement": "MIC", "setting": "P. aeruginosa; P. aeruginosa 8798, Meropenem alone (checkerboard with BisEDT), read-out: Drug B MIC", "value": 32, "unit": "µg/mL"}, {"measurement": "MIC", "setting": "P. aeruginosa; P. aeruginosa 9108, Meropenem alone (checkerboard with BisEDT), read-out: Drug B MIC", "value": 1, "unit": "µg/mL"}, {"measurement": "MIC", "setting": "S. pyogenes; S. pyogenes MMX 3068, Ery^R", "value": "≤ 0.008", "unit": "µg/mL"}, {"measurement": "MIC", "setting": "S. pyogenes; S. pyogenes MMX 3820, ERY^R CLI^R", "value": "≤ 0.008", "unit": "µg/mL"}, {"measurement": "MIC", "setting": "S. pyogenes; S. pyogenes MMX 3919, ERY^R", "value": "≤ 0.008", "unit": "µg/mL"}, {"measurement": "MIC", "setting": "S. pyogenes; S. pyogenes MMX 3929, ERY^R CC^R", "value": "≤ 0.008", "unit": "µg/mL"}, {"measurement": "MIC", "setting": "S. pyogenes; S. pyogenes MMX 5091, ERY^R CC^R", "value": "≤ 0.008", "unit": "µg/mL"}, {"measurement": "MIC", "setting": "Escherichia coli; ATCC25922, E. coli MMX 102 (ATCC 25922), QC", "value": 0.03, "unit": "µg/mL"}, {"measurement": "MIC", "setting": "Escherichia coli; ATCCBAA2469, E. coli MMX 5980 (ATCC BAA-2469), NDM-1, Lev^R, MEM^R, CAZ^R, Gm^R", "value": 32, "unit": "µg/mL"}, {"measurement": "MIC", "setting": "Escherichia coli; E. coli MMX 8423, ESBL, Lev^R, CAZ^R, Gm^R", "value": 0.03, "unit": "µg/mL"}, {"measurement": "MIC", "setting": "Escherichia coli; E. coli MMX 8424, ESBL, CAZ^R", "value": 0.03, "unit": "µg/mL"}, {"measurement": "MIC", "setting": "Escherichia coli; E. coli MMX 8425, ESBL, Lev^R, CAZ^R, Gm^R", "value": 0.015, "unit": "µg/mL"}, {"measurement": "MIC", "setting": "S. pneumoniae; ATCC49619, S. pneumoniae MMX 6837 (ATCC 49619), QC", "value": 0.06, "unit": "µg/mL"}, {"measurement": "MIC", "setting": "S. pneumoniae; S. pneumoniae MMX 880, Lev^R SXT^R CC^R Ery^R Pen^R", "value": 0.5, "unit": "µg/mL"}, {"measurement": "MIC", "setting": "S. pneumoniae; S. pneumoniae MMX 937, Mem^R SXT^R CC^R Ery^R Pen^R", "value": 1, "unit": "µg/mL"}, {"measurement": "MIC", "setting": "S. pneumoniae; S. pneumoniae MMX 3959, CC^R Ery^R", "value": 0.03, "unit": "µg/mL"}, {"measurement": "MIC", "setting": "S. pneumoniae; S. pneumoniae MMX 5440, Mem^R SXT^R CC^R Ery^R Pen^R", "value": 1, "unit": "µg/mL"}, {"measurement": "MIC", "setting": "S. pneumoniae; S. pneumoniae MMX 5445, Mem^R SXT^R CC^R Ery^R Pen^R", "value": 1, "unit": "µg/mL"}, {"measurement": "MIC", "setting": "S. pneumoniae; S. pneumoniae MMX 8133, Mem^R SXT^R CC^R Ery^R Pen^R", "value": 1, "unit": "µg/mL"}, {"measurement": "MIC", "setting": "Klebsiella pneumoniae; K. pneumoniae MMX 4622, KPC-2, MEM^R, CAZ^R", "value": "> 64", "unit": "µg/mL"}, {"measurement": "MIC", "setting": "Klebsiella pneumoniae; K. pneumoniae MMX 4623, KPC-2, MEM^R, CAZ^R, GM^R", "value": "> 64", "unit": "µg/mL"}, {"measurement": "MIC", "setting": "Klebsiella pneumoniae; K. pneumoniae MMX 4653, KPC-3, Lev^R, MEM^R, CAZ^R", "value": "> 64", "unit": "µg/mL"}, {"measurement": "MIC", "setting": "Klebsiella pneumoniae; K. pneumoniae MMX 4683, KPC-2, Lev^R, MEM^R, CAZ^R", "value": 32, "unit": "µg/mL"}, {"measurement": "MIC", "setting": "Klebsiella pneumoniae; K. pneumoniae MMX 4684, ESBL, MEM^R", "value": 8, "unit": "µg/mL"}, {"measurement": "MIC", "setting": "Klebsiella pneumoniae; K. pneumoniae MMX 4685, ESBL, Lev^R, MEM^R, CAZ^R", "value": 4, "unit": "µg/mL"}, {"measurement": "MIC", "setting": "Klebsiella pneumoniae; K. pneumoniae MMX 4694, KPC-3, Lev^R, MEM^R, CAZ^R", "value": 32, "unit": "µg/mL"}, {"measurement": "MIC", "setting": "Klebsiella pneumoniae; K. pneumoniae MMX 5979, NDM-1, Lev^R, MEM^R, CAZ^R, Gm^R", "value": "> 64", "unit": "µg/mL"}, {"measurement": "MIC", "setting": "B. cepacia; B. cepacia 546", "value": 4, "unit": "µg/mL"}, {"measurement": "MIC", "setting": "B. cepacia; B. cepacia 1793", "value": 4, "unit": "µg/mL"}, {"measurement": "MIC", "setting": "S. agalactiae; S. agalactiae MMX 3741, ERY^R CC^R", "value": 0.03, "unit": "µg/mL"}, {"measurement": "MIC", "setting": "S. agalactiae; S. agalactiae MMX 3743, ERY^R CC^R", "value": 0.06, "unit": "µg/mL"}, {"measurement": "MIC", "setting": "S. agalactiae; S. agalactiae MMX 4077, ERY^R CC^R", "value": 0.06, "unit": "µg/mL"}, {"measurement": "MIC", "setting": "S. agalactiae; S. agalactiae MMX 4079, ERY^R CC^R Pen^R MEM^R", "value": 8, "unit": "µg/mL"}, {"measurement": "MIC", "setting": "S. agalactiae; S. agalactiae MMX 4086, ERY^R CC^R", "value": 0.06, "unit": "µg/mL"}, {"measurement": "MIC", "setting": "Enterobacter cloacae", "value": "> 64", "unit": "µg/mL"}]}
